This is an account of results in PMC7191901, “Hybrid inhibitors of DNA and HDACs remarkably enhance cytotoxicity in leukaemia cells” (Journal of Enzyme Inhibition and Medicinal Chemistry, 2020).

“Also recorded” adds a separate entry of the source. Where two headings read alike, the source gives them in different places. A value given as a limit tells only on which side of the number the result lay.

The subject of assay [1] is HL-60 cells. Type of assay: cell-based, human.
Another assay deals with A2780 cells. As to the kind of experiment: Cell proliferation (MTS) assay, A2780. It is filed as cell-based. Particulars: Homo sapiens, read-out: GI50 values, A2780.
In assay [2] the test system is HL-60 cells. Type of assay: cell-based, human. This is another data set of the same source.
The next assay concerns U266 cells. Description: cells. Type of assay: cell-based. Particulars: Homo sapiens, U-266, 72 h, read-out: GI50, U266.
The subject of another assay is MDA-MB-231 cells. As to the kind of experiment: Cell proliferation (MTS) assay, MDA-MB-231. Type of assay: cell-based. Particulars: Homo sapiens, read-out: GI50 values, MDA-MB-231.
In another assay the test system is U-937 cells. As to the kind of experiment: Cell proliferation (MTS) assay, U-937. Particulars: Homo sapiens, read-out: GI50 values, U-937. Type of assay: cell-based.
Another assay has as its system A549 cells. Description: cells. It is filed as cell-based. Particulars: Homo sapiens, A549, 72 h, read-out: GI50, A549.
Assay [3] concerns PARP, caspase 3, and caspase 8. Type of assay: cell-based, human.
In the next assay the test system is MCF-7 cells. Description: Cell proliferation (MTS) assay, MCF-7. Particulars: Homo sapiens, MCF7, 72 h, read-out: GI50 values, MCF-7. It is filed as cell-based.
Another assay has as its system H1975 cells. Description: cells. Type of assay: cell-based. Particulars: Homo sapiens, NCI-H1975, 72 h, read-out: GI50, H1975.
The subject of assay [4] is Ac-α-tubulin and Ac-histone H3. Type of assay: cell-based, human.
A further assay has as its system MCF-7/ADR cells. As to the kind of experiment: cells. It is filed as cell-based. Particulars: Homo sapiens, NCI/ADR-RES, 72 h, read-out: GI50, MCF-7/ADR.
The subject of assay [5] is HL-60 cells. Description: Cell proliferation (MTS) assay, HL-60. Type of assay: cell-based. Particulars: Homo sapiens, read-out: GI50 values, HL-60.
Where [6] appears, read: A2780, 3 days (72 h), MTS assay.
[7] abbreviates: MDA-MB-231, 3 days (72 h), MTS assay.
[8] abbreviates: U-937, 3 days (72 h), MTS assay.
Where [9] appears, read: HL-60, 3 days (72 h), MTS assay.

Take `O=C(O)CCCc1ccc(N(CCCl)CCCl)cc1` [Chlorambucil]: in the assay with HL-60 cells [1], the G2/M fraction is listed as 32.2%. Further, the GI50 in the assay with A2780 cells (A2780, 72 h) was more than 100 µM; in the assay with U266 cells, more than 100 µM; in the assay with MDA-MB-231 cells (MDA-MB-231, 72 h), more than 100 µM; with U-937 cells (U-937, 72 h), 37.7 µM; in the assay on A549 cells, more than 100 µM; in the assay on MCF-7 cells, 393 µM. For the same compound, the GI50 in the assay on H1975 cells was more than 100 µM; in the assay with MCF-7/ADR cells it was more than 100 µM; in the assay on HL-60 cells [5] (HL-60, 72 h), 21.1 µM. For the same compound, the “% DNA content in the tail” value in the assay with HL-60 cells [2] amounted to 2.1%. The “concentration required to induce the cleavage of PARP, caspase 3, and caspase 8” value in assay [3] worked out at 30 µM. Also, the “acetylation of α-tubulin and histone H3” value in assay [4] was “failed to induce the acetylation of α-tubulin and histone H3; also recorded: little acetylation of α-tubulin and histone H3”.

Consider `Nc1ccc(CCCC(=O)NO)cc1` [Compound 7, 4–(4-Aminophenyl)-N-hydroxybutanamide], for which the GI50 with A2780 cells (setting [6]) was more than 100 µM; with MDA-MB-231 cells (setting [7]) it was more than 100 µM; in the assay with U-937 cells (setting [8]), 93 µM; in the assay with MCF-7 cells (3 days, MTS assay) it was 393 µM; in the assay on HL-60 cells [5] (setting [9]) it was 60.5 µM.

As for `CCN(CC)c1ccc(CCCC(=O)NO)cc1` [Compound 8a, 4–(4-(Diethylamino)phenyl)-N-hydroxybutanamide], the GI50 was 81 µM in the assay with A2780 cells (setting [6]); 85.1 µM in the assay with MDA-MB-231 cells (setting [7]); more than 100 µM in the assay on U-937 cells (setting [8]); 282 µM in the assay with MCF-7 cells (3 days, MTS assay); 70.3 µM with HL-60 cells [5] (setting [9]).

With `CCCN(CCC)c1ccc(CCCC(=O)NO)cc1` [Compound 8b, 4–(4-(Dipropylamino)phenyl)-N-hydroxybutanamide], the GI50 in the assay with A2780 cells (setting [6]) came out at 7.79 µM; with MDA-MB-231 cells (setting [7]) it was 66.8 µM; in the assay on U-937 cells (setting [8]), 40.2 µM; in the assay on MCF-7 cells (3 days, MTS assay), 37.8 µM; in the assay on HL-60 cells [5] (setting [9]), 34.4 µM.
